Data on one molecule can be found in PMC3648489, “The sodium glucose cotransporter 2 inhibitor empagliflozin does not prolong QT interval in a thorough QT (TQT) study” (Cardiovascular Diabetology, 2013).

This data set can be described thus: Empagliflozin plasma pharmacokinetics (HPLC-MS/MS) in the TQT study. The class given is in vivo, human. The note with it: for Tmax / AUC(0-t) / Cmax: human; for Tmax: po, read-out: tmax, median; for AUC(0-t): read-out: AUC0−tz, gMean; for Cmax: read-out: Cmax, gMean. On the procedure: Blood samples for pharmacokinetic measurements were taken one hour before drug administration and at the same post-dose time points as ECG measurements, except for the moxifloxacin periods. Empagliflozin concentrations in plasma were determined using a validated high performance liquid chromatography, tandem mass spectrometry (HPLC-MS/MS) assay with a lower limit of quantification of 1.11 nmol/L (0.5 ng/mL). Results were calculated using peak area ratios and calibration curves were created using weighted (1/x2) quadratic regression. […] Pharmacokinetic parameters included Cmax, tmax which were determined directly from the plasma concentration-time profiles of each, and area under the plasma concentration curve from zero to the last quantifiable time point (AUC0–tz), calculated using the linear trapezoidal method for ascending concentrations and the log trapezoidal method for descending concentrations. Pharmacokinetic parameters were determined using WinNonlin™ software v5.2 (Pharsight Corporation, Mountain View, California, USA).

Where [1] appears, read: empagliflozin 25 mg single oral dose, plasma, n=28.
Setting [2] is: empagliflozin 200 mg single oral dose, plasma, n=30.

Molecules are shown by their SMILES. Where two headings read alike, the source gives them in different places.

For orientation: Tmax means the time from dosing to the highest level. For orientation: Cmax means the maximum level reached in the sampled fluid or tissue. Regarding `OC[C@H]1O[C@@H](c2ccc(Cl)c(Cc3ccc(O[C@H]4CCOC4)cc3)c2)[C@H](O)[C@@H](O)[C@@H]1O` [Empagliflozin, empagliflozin], the “Dose proportionality of empagliflozin exposure” value (25 mg and 200 mg single doses) is listed as “increased approximately dose proportionally”. Also, under setting [1], the “tmax, median” value is 1.5 h; the AUC(0-t) came to 4.86 µM·h; the peak concentration (Cmax) was 768 nM. Further, the Tmax (plasma, 25 mg, empagliflozin 25 mg single oral dose, plasma, n=28) was around 1.5 h. Besides, the Tmax (plasma, 200 mg, empagliflozin 200 mg single oral dose, plasma, n=30) is around 1.8 h. Under setting [2], the AUC(0-t) was determined as 36.4 µM·h and the Cmax was found to be 4860 nM.
